Assay results published in ChEMBL document CHEMBL1201862, “PubChem BioAssay data set” (2004).
Activity calls are given as the source filed them.

Assays:
[1] = cytotoxicity toward Colo320 cells – cell-based, CellTiter-Glo luminescence, IC50, dose response (AID 1117334); assay type: functional; settings: COLO 320
[2] = HeLa 4N DNA content increase, dose response, cell-based, IC50 (AID 1117351); assay type: functional
[3] = CellTiter-Glo luminescent dose response of DLD-1 viability loss (AID 1117352); assay type: functional
Cytochrome P450 2D6 = Cytochrome P450 2D6 (Homo sapiens, UniProt P10635);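 also: CYP2D6 member of a cytochrome P450 panel assay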
[4] = target: Protein kinase C delta type (Homo sapiens, UniProt Q05655); assay type: functional
[5] = target: Proto-oncogene tyrosine-protein kinase receptor Ret (Homo sapiens, UniProt P07949); assay type: functional;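 also: measured within a kinome-wide profiling panel, RET as the panel member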
Activin receptor type-1 = Activin receptor type-1 (Homo sapiens, UniProt Q04771); assay: Navigating the Kinome. Panel member name: ACVR1; assay type: functional
[6] = target: Serine/threonine-protein kinase pim-1 (Homo sapiens, UniProt P11309); assay type: functional
[7] = target: MAP kinase-activated protein kinase 2 (Homo sapiens, UniProt P49137); assay type: functional;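 also: measured as one member of a kinome-wide kinase panel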
[8] = target: Fibroblast growth factor receptor 1 (Homo sapiens, UniProt P11362); assay type: functional
[9] = target: Casein kinase I isoform gamma-1 (Homo sapiens, UniProt Q9HCP0); assay type: functional;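 also: measured as the CSNK1G1 member of a kinome profiling panel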
[10] = target: Tyrosine-protein kinase Lyn (Homo sapiens, UniProt P07948); assay type: functional;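 also: lyn as one member of a kinase panel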
[11] = target: Tyrosine-protein kinase Blk (Homo sapiens, UniProt P51451); assay type: functional;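 also: obtained as one member of a kinome-wide kinase assay panel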
[12] = target: Testis-specific serine/threonine-protein kinase 1 (Homo sapiens, UniProt Q9BXA7); assay type: functional
[13] = target: High affinity nerve growth factor receptor (Homo sapiens, UniProt P04629); assay type: functional;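 also: NTRK1 tested as one member of a kinome-wide profiling panel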
[14] = target: Serine/threonine-protein kinase pim-3 (Homo sapiens, UniProt Q86V86); assay type: functional;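 also: value obtained as one member of a broad kinase panel profiling effort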
[15] = target: Dual specificity tyrosine-phosphorylation-regulated kinase 3 (Homo sapiens, UniProt O43781); assay type: functional;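 also: measured as one member of a broad kinase panel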
[16] = target: MAP kinase-activated protein kinase 3 (Homo sapiens, UniProt Q16644); assay type: functional;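 also: value comes from a kinome-wide profiling panel in which MAPKAPK3 is one of the panel members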
[17] = target: Platelet-derived growth factor receptor alpha (Homo sapiens, UniProt P16234); assay: Navigating the Kinome. Panel member name: PDGFRA; assay type: functional
[18] = target: Serine/threonine-protein kinase Nek2 (Homo sapiens, UniProt P51955); assay type: functional
[19] = target: STE20-like serine/threonine-protein kinase (Homo sapiens, UniProt Q9H2G2); assay type: functional
[20] = target: Macrophage-stimulating protein receptor (Homo sapiens, UniProt Q04912); assay: Navigating the Kinome. Panel member name: MST1R; assay type: functional
[21] = target: Macrophage colony-stimulating factor 1 receptor (Homo sapiens, UniProt P07333); assay type: functional;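 also: value comes from the Navigating the Kinome screening panel, CSF1R member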
HEK293 [22] = assay: NOD1 signaling inhibitors, primary screen, cell-based, luminescence, uHTS (AID 1578); assay type: functional; settings: Homo sapiens
[23] = target: Nucleotide-binding oligomerization domain-containing protein 2 (Homo sapiens, UniProt Q9HC29); assay: NOD2 signaling inhibitors, cell-based, luminescence, uHTS, HEK293 (AID 1566); assay type: functional
HEK293 [24] = assay: NOD2 signaling inhibitors in MDP-stimulated cells, cell-based, uHTS, luminescence (AID 2001); assay type: functional; settings: Homo sapiens
[25] = target: Peroxisome proliferator-activated receptor gamma/Nuclear receptor corepressor 2 (Homo sapiens, UniProt P37231+Q9Y618); assay type: functional
Hexokinase HKDC1 = target: T1, Hexokinase HKDC1 (Homo sapiens, UniProt Q2TB90); assay: HKDC1 hexokinase inhibitors, dose response, biochemical, W721R variant (AID 504729); assay type: functional
T1 sequence (Q2TB90 whole entry): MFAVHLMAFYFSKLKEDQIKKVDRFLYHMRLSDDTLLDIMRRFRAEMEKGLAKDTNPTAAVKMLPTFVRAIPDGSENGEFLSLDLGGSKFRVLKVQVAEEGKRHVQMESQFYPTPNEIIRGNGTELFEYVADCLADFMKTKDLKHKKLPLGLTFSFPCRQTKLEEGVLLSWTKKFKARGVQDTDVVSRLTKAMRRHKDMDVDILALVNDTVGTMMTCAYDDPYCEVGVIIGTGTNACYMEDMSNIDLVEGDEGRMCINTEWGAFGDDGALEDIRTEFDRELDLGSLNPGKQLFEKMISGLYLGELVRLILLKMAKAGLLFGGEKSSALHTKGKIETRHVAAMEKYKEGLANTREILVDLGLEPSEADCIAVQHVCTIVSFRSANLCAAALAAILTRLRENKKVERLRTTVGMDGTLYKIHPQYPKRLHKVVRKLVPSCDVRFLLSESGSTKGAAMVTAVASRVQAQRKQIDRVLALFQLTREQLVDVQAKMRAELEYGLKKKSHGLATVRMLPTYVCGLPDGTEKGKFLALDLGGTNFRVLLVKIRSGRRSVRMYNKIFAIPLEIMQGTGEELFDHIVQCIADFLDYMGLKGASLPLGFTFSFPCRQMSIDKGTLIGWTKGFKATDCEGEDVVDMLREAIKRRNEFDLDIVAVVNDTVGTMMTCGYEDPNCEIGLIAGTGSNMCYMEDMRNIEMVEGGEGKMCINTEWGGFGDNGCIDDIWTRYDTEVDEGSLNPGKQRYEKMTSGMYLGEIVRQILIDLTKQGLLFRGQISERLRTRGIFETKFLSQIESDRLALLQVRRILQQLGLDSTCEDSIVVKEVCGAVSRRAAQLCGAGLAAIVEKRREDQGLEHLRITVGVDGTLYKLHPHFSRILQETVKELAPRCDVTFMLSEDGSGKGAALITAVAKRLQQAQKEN

Cysteine protease ATG4B = target: T2, Cysteine protease ATG4B (Homo sapiens, UniProt Q9Y4P1); assay type: functional;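 also: Fluorescence-based dose-response confirmation assay measuring inhibition of ATG4B activity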
T2 sequence (Q9Y4P1 whole entry): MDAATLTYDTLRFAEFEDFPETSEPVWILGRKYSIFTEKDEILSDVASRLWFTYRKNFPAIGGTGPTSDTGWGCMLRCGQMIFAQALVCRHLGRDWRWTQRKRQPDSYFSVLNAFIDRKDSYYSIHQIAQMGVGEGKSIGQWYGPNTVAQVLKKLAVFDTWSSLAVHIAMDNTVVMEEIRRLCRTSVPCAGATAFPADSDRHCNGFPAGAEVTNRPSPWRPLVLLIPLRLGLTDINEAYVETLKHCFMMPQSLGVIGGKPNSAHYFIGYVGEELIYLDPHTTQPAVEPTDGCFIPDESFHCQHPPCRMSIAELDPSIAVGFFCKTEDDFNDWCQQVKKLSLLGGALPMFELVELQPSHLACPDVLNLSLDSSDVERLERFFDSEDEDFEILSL

[26] = control 3'UTR Renilla luciferase suppression, dose response, counter-screen for Shn3 inhibitor project, cell-based, Clone20-Shn3RL, cherry-picked (AID 624133); assay type: functional

Sequence of Platelet-derived growth factor receptor alpha (P16234 whole entry): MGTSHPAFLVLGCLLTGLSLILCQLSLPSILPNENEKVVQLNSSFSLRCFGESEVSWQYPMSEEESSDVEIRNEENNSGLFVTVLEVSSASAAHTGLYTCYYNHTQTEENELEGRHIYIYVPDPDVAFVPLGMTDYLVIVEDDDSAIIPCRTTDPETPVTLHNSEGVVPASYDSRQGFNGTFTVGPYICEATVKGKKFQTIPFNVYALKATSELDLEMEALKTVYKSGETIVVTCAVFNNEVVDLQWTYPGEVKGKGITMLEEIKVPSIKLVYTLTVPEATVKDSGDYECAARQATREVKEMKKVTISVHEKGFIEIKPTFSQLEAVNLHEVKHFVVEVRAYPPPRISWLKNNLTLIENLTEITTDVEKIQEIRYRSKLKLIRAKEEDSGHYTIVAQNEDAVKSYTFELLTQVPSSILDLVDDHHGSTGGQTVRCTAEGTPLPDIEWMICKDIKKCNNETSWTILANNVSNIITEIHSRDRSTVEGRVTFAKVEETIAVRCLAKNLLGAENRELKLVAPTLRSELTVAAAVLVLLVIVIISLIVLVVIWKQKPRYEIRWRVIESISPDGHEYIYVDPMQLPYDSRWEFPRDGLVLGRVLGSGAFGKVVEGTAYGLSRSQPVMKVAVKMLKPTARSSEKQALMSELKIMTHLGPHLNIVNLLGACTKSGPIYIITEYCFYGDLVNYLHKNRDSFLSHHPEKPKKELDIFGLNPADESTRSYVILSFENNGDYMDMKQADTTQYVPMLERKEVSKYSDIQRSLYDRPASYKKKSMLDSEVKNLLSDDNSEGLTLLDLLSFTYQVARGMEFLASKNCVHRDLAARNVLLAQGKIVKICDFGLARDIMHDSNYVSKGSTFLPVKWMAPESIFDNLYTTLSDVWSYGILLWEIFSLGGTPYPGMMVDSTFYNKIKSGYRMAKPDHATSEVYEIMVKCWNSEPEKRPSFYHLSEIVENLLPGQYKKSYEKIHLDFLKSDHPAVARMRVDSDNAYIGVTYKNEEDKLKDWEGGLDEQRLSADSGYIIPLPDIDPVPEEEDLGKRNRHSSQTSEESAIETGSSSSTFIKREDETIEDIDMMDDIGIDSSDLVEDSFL
Sequence of Proto-oncogene tyrosine-protein kinase receptor Ret (P07949 whole entry): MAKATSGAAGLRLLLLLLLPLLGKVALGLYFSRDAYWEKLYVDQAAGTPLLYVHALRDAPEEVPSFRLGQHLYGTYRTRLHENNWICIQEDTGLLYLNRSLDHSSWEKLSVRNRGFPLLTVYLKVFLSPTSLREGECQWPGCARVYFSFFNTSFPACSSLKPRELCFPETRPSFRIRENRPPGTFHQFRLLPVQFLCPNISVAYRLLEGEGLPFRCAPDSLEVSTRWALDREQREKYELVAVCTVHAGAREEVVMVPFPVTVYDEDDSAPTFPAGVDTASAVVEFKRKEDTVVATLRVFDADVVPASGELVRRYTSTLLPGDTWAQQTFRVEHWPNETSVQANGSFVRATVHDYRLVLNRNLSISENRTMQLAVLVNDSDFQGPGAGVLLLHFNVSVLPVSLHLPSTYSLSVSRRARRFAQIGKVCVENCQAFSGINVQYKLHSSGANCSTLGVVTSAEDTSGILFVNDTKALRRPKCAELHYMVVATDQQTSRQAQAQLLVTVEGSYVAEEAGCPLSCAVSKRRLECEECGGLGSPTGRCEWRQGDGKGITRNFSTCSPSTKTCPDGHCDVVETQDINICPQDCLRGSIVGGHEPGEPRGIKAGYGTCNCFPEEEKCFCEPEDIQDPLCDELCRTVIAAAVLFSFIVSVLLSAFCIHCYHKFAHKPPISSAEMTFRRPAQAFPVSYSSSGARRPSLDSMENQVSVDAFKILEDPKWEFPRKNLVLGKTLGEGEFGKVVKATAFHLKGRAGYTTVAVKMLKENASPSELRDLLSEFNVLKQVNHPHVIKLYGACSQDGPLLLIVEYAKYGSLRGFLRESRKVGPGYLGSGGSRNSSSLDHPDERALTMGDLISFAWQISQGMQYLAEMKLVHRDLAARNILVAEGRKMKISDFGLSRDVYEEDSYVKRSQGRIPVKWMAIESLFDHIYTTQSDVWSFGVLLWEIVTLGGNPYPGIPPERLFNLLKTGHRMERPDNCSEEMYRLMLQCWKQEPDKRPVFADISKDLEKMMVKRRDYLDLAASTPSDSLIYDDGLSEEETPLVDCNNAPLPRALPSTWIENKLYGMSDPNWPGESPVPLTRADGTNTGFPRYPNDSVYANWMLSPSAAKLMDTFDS
Sequence of Cytochrome P450 2D6 (P10635 whole entry): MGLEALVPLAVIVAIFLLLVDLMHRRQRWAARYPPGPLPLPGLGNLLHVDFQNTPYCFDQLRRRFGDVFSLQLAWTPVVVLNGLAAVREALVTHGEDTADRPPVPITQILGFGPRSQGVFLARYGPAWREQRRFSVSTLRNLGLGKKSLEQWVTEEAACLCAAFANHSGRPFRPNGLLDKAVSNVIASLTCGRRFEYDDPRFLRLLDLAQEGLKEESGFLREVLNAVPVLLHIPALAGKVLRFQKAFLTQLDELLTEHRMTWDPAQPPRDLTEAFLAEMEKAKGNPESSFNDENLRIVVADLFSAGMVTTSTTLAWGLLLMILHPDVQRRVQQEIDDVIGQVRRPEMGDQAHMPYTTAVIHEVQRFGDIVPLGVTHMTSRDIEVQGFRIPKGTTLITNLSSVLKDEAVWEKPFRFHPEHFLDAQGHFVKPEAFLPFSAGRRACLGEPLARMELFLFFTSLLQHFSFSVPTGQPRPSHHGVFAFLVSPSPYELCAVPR
Sequence of STE20-like serine/threonine-protein kinase (Q9H2G2 whole entry): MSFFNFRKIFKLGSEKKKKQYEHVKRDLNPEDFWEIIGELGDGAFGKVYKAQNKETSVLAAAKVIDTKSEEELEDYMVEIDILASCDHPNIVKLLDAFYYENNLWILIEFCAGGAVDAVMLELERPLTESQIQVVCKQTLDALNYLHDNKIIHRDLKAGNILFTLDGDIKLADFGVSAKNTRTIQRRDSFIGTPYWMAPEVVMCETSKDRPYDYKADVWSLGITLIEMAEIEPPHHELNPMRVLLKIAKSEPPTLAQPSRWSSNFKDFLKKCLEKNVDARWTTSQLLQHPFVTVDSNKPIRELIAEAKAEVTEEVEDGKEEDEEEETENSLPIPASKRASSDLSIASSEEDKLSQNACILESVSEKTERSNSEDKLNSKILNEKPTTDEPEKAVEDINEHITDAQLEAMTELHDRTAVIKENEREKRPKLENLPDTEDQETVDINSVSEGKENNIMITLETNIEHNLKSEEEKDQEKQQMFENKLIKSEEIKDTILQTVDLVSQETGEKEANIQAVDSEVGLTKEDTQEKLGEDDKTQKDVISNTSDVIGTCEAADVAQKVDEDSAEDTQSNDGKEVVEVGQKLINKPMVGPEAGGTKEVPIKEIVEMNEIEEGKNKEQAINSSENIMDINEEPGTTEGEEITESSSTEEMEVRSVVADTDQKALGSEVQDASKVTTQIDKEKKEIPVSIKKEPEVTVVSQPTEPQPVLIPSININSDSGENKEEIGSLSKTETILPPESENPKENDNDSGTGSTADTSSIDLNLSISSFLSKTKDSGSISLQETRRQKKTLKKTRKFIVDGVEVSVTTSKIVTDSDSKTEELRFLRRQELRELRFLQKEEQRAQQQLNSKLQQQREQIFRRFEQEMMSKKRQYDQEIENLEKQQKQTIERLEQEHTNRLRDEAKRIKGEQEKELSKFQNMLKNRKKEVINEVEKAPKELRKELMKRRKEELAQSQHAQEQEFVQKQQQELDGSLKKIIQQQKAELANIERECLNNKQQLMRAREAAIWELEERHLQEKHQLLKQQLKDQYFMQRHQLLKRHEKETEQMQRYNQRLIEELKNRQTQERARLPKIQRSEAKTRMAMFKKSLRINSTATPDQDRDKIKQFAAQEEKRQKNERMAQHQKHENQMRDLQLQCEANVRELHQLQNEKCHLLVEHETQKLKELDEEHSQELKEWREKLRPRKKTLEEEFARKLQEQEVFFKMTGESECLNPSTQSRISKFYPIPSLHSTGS
Sequence of Tyrosine-protein kinase Lyn (P07948 whole entry): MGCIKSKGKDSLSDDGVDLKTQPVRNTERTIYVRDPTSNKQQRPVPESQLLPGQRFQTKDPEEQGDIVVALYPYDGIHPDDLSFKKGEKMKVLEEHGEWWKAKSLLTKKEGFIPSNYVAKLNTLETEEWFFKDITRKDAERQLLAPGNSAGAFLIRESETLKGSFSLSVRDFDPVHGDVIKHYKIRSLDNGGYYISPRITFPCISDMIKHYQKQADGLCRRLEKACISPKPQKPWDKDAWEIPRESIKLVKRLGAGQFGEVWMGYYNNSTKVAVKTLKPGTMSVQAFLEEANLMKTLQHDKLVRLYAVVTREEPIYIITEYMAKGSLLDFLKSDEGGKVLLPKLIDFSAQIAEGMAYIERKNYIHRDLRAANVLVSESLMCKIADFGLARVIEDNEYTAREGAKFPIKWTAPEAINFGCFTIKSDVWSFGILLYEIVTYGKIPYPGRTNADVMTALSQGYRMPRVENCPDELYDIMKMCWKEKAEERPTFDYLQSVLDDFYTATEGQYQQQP
Sequence of Casein kinase I isoform gamma-1 (Q9HCP0 whole entry, canonical isoform): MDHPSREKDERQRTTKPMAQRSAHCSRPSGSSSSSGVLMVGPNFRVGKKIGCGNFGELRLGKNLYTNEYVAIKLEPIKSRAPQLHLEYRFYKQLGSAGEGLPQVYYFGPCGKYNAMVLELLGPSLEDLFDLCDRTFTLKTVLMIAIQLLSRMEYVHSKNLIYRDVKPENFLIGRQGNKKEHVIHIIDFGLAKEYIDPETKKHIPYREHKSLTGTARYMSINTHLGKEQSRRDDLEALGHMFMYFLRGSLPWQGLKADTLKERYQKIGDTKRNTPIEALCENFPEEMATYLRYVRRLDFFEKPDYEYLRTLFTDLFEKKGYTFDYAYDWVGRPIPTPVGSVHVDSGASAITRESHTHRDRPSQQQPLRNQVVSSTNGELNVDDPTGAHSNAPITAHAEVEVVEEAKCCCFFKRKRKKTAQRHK

CCc1oc2ccccc2c1C(=O)c1cc(Br)c(O)c(Br)c1 [BENZBROMARONE]
IC50 [1]: > 20 µM (inactive)
IC50 [2]: > 10 µM (inactive)
IC50 [3]: 0.268 µM (active)
AC50 (Cytochrome P450 2D6): inactive

N#Cc1ccc2[nH]c(O)c(-c3ccc(CN4CCOCC4)cn3)c2c1 [AZD-1080]
Ki [4]: > 7.94 µM (inactive)
Ki [5]: > 2.51 µM (inactive)
Ki (Activin receptor type-1): > 3.98 µM (inactive)
Ki [6]: > 5.01 µM (inactive)
Ki [7]: > 7.94 µM (inactive)
Ki [8]: > 3.98 µM (inactive)
Ki [9]: > 6.31 µM (inactive)
Ki [10]: > 1.58 µM (inactive)
Ki [11]: > 1.58 µM (inactive)
Ki [12]: > 1.58 µM (inactive)
Ki [13]: > 2.51 µM (inactive)
Ki [14]: 3.98 µM (active)
Ki [15]: 1 µM (active)
Ki [16]: > 10 µM (inactive)
Ki [17]: > 2.51 µM (inactive)
Ki [18]: > 10 µM (inactive)
Ki [19]: > 10 µM (inactive)
Ki [20]: > 3.98 µM (inactive)
Ki [21]: > 2.51 µM (inactive)

O=C1C=C(N2CCOCC2)c2ccccc2C1=O
EC50 (HEK293 [22]): 8.79 µM (active)
EC50 [23]: 13.3 µM (active)
IC50 (HEK293 [24]): 10.3 µM (inactive)
IC50 [25]: > 39.8 µM (not active)
IC50 (Hexokinase HKDC1): 1.02 µM (active)
IC50 (Cysteine protease ATG4B): 7.07 µM (active)
AC50 [26]: 8.28 µM (active)
